Reference: US20070021501A1, “Methods of treating epileptogenesis” (priority 2005, published 2007)

Experiments:
[1] = tested on: lithium-pilocarpine model of temporal lobe epilepsy in the rat; assay: Mossy fiber sprouting in hippocampus, Timm staining (Example 1); type: in vivo
Experimental: At 2 months after the onset of spontaneous recurrent seizures, mossy fiber sprouting was examined on rats in the chronic period exposed to the test compound or DZP and in 3 saline-saline rats. Animals were deeply anaesthetized and perfused transcardially with saline followed by 100 ml of 1.15% (w/v) Na2S in 0.1 M phosphate buffer, and 100 ml of 4% (v/v) formaldehyde in 0.1 M phosphate buffer. Brains were removed from skull, post-fixed in 4% formaldehyde during 3-5 h and 40 μm sections were cut on a sliding vibratome and mounted on gelatin-coated slides.
The following day, sections were developed in the dark in a 26° C. solution of 50% (w/v) arabic gum (160 ml), sodium citrate buffer (30 ml), 5.7% (w/v) hydroquinone (80 ml) and 10% (w/v) silver nitrate (2.5 ml) during 40-45 min. The sections were then rinsed with tap water at 40° C. during at least 45 min, rinsed rapidly with distilled water and allowed to dry. They were dehydrated in ethanol and coverslipped.
Mossy fiber sprouting was evaluated according to criteria previously described in dorsal hippocampus (Cavazos et al., 1991, J Neurosci 11:2795-2803.), which are follows: 0—no granules between the tips and crest of the DG; 1—sparse granules in the supragranular region in a patchy distribution between the tips and crest of DG; 2—more numerous granules in a continuous distribution between the tips and crest of DG; 3—prominent granules in a continuous pattern between tips and crest, with occasional patches of confluent granules between tips and crest; 4—prominent granules that form a confluent dense laminar band between tips and crest and 5—confluent dense laminar band of granules that extends into the inner molecular layer.

[2] = tested on: lithium-pilocarpine model of temporal lobe epilepsy in the rat; assay: Latency to and frequency of spontaneous recurrent seizures (SRS), lithium-pilocarpine model (Example 1); type: in vivo
Experimental: The bilateral EEG cortical activity was recorded during the whole duration of SE and behavioral changes were noted.
The effects of increasing doses of the test compound were studied on 3 groups of rats. The animals of the first group received 10 mg/kg of the test compound, i.p., 1 h after the onset of SE (pilo-TC10) while the animals of groups 2 and 3 received 30 and 60 mg/kg of the test compound (pilo-TC30 and pilo-TC60), respectively.
The control group received saline instead of pilocarpine and the test compound (saline-saline). […] Pilo-DZP received a second injection of 1 mg/kg DZP on the day of SE at about 10 h after the first one. Thereafter, Pilo-DZP and saline-saline rats received twice daily an equivalent volume of saline. […]
To calculate the frequency of SRS in pilocarpine-exposed rats, the seizure severity and distinguished stage III (clonic seizures of facial muscles and anterior limbs) and stage IV-V seizures (rearing and falling) was considered. […] The frequency of more severe stage IV-V SRS was highest during the first week in most groups, except pilo-TC30 and TC60 with late seizure onset where the SRS frequency was constant over the whole 4 weeks in TC30 group and over the first two weeks in the pilo-TC60 group with late SRS onset in which no stage IV-V seizures where no seizures recorded after the second week.

Row | Structure (SMILES) | mean Timm score in the upper blade of the dentate gyrus ([1]; DZP (n=9)) | frequency of stage III SRS ([2]; TC 10 mg/kg, weeks 3 and 4) | occurrence of epilepsy ([2]; TC 60 mg/kg, one rat) | mean Timm score in the upper blade of the dentate gyrus ([1]; TC 10 mg/kg (n=7)) | mean Timm score in the upper blade of the dentate gyrus ([1]; TC 30 mg/kg (n=10)) | mean Timm score in the upper blade of the dentate gyrus ([1]; TC 60 mg/kg, whole group (n =11))
1 | CN1C(=O)CN=C(c2ccccc2)c2cc(Cl)ccc21 [DZP, diazepam] | 2.8±0.8 | – | – | – | – | –
2 | NC(=O)OC[C@@H](O)c1ccccc1Cl [TC] | – | significantly increased over pilo-DZP values | did not become epileptic in a delay of 9 months post-SE | 1.5±0.6 | 2.6±1.0 | 1.5±0.7
